Drawing on patent publication US7973051B2 (Hoffman-La Roche Inc., priority 2007, dated 2011), this text covers IC50 for 16 molecules.

The term IC50 denotes the point on the concentration scale where inhibition reaches its midpoint.

The assay has as its target T1, human liver FBPase (Homo sapiens, UniProt P09467).
T1 construct: made in house; host or cells: E. coli
T1 sequence (P09467 2-338 limits assumed): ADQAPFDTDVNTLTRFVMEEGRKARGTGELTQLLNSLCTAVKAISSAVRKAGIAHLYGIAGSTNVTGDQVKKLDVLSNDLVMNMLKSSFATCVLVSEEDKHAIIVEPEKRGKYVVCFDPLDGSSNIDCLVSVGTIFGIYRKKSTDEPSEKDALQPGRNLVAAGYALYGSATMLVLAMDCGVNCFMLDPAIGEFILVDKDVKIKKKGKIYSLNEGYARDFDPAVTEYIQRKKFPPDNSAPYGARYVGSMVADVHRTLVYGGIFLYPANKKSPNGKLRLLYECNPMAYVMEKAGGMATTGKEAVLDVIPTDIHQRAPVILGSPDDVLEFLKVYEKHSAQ
Nature of the assay: FBPase assay: inorganic phosphate release (malachite green). In kind it is biochemical. The note with it: recombinant human liver FBPase, 50 μM fructose-1,6-bisphosphate, read-out at 620 nm. The essentials: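 Recombinant human liver FBPase (E. coli-expressed, >90% pure), 25 ng per reaction, with 50 μM fructose-1,6-bisphosphate in 50 mM HEPES-KOH pH 7.2, 2 mM MgCl2, 2 mM EDTA, 1 mM DTT, 1% DMSO. After 50 min at room temperature, released phosphate was complexed with malachite green/ammonium molybdate and read at 620 nm.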
On to `COc1ccc2cc(S(=O)(=O)NC(=O)Nc3ncc(Br)s3)sc2c1Br` [Example 15, 7-Bromo-N-[(5-bromo-1,3-thiazol-2-yl)carbamoyl]-6-methoxy-1-benzothiophene-2-sulfonamide], for which the half-inhibitory concentration (IC50) is 0.141 µM. In the case of `CCc1sc(NC(=O)NS(=O)(=O)c2cc(C)c(CCOC(C)=O)s2)nc1C` [Example 68, 2-[5-({[(5-Ethyl-4-methyl-1,3-thiazol-2-yl)carbamoyl]amino}sulfonyl)-3-methyl-2-thienyl]ethyl acetate], the IC50 amounted to 0.149 µM. The same measure for `Cn1cc(S(=O)(=O)NC(=O)Nc2ncc(Br)s2)c2ccc(C#N)cc21` [Example 29, N-[(5-Bromo-1,3-thiazol-2-yl)carbamoyl]-6-cyano-1-methyl-1H-indole-3-sulfonamide]: 0.74 µM; for `COc1cccc2c(S(=O)(=O)NC(=O)Nc3ncc(Br)s3)c[nH]c12` [Example 43, N-[(5-bromo-1,3-thiazol-2-yl)carbamoyl]-7-methoxy-1H-indole-3-sulfonamide]: 4.06 µM.

As for `CCc1sc(NC(=O)NS(=O)(=O)c2cc(C)c(CCO)s2)nc1-c1ccccc1` [Example 81, N-[(5-Ethyl-4-phenyl-1,3-thiazol-2-yl)carbamoyl]-5-(2-hydroxyethyl)-4-methylthiophene-2-sulfonamide], the 50% inhibitory concentration (IC50) came to 0.102 µM. As to `Cn1cc(S(=O)(=O)NC(=O)Nc2ncc(Br)s2)c2ccccc21` [Example 23, N-[(5-Bromo-1,3-thiazol-2-yl)carbamoyl]-1-methyl-1H-indole-3-sulfonamide], the IC50 came to 0.385 µM. Regarding `CC(=O)OCCc1sc(S(=O)(=O)NC(=O)Nc2nc(C)c(Br)s2)cc1C` [Example 64, 2-[5-({[(5-Bromo-4-methyl-1,3-thiazol-2-yl)carbamoyl]amino}sulfonyl)-3-methyl-2-thienyl]ethyl acetate], the half-maximal inhibitory concentration (IC50) was found to be 0.188 µM. For the molecule `CCc1nc(NC(=O)NS(=O)(=O)c2cc(C)c(CCOC(C)=O)s2)sc1SC` [Example 83, 2-{5-[({[4-Ethyl-5-(methylthio)-1,3-thiazol-2-yl]carbamoyl}amino)sulfonyl]-3-methyl-2-thienyl}ethyl acetate], the IC50 is 0.134 µM.

Consider `Cc1ccc2scc(S(=O)(=O)NC(=O)Nc3ncc(Br)s3)c2c1` [Example 11, N-[(5-Bromo-1,3-thiazol-2-yl)carbamoyl]-5-methyl-1-benzothiophene-3-sulfonamide], for which the IC50 stood at 0.624 µM. The same measure for `CCc1nc(NC(=O)NS(=O)(=O)c2cc(C)c(CCOC(C)=O)s2)sc1CC` [Example 67, 2-[5-({[(4,5-Diethyl-1,3-thiazol-2-yl)carbamoyl]amino}sulfonyl)-3-methyl-2-thienyl]ethyl acetate]: 0.215 µM; for `COc1ccc2nc(NC(=O)NS(=O)(=O)c3cc(C)c(CCO)s3)sc2n1` [Example 56, 5-(2-Hydroxyethyl)-N-[(5-methoxy[1,3]thiazolo[5,4-b]pyridin-2-yl)carbamoyl]-4-methylthiophene-2-sulfonamide]: 0.534 µM; for `COc1cnc(NC(=O)NS(=O)(=O)c2cn(C)c3c(OCCO)cccc23)s1` [Example 47, 7-(2-Hydroxyethoxy)-N-[(5-methoxy-1,3-thiazol-2-yl)carbamoyl]-1-methyl-1H-indole-3-sulfonamide]: 0.734 µM.

Turning to `COCc1oc(S(=O)(=O)NC(=O)Nc2ncc(Br)s2)cc1C` [Example 36, N-[(5-Bromo-1,3-thiazol-2-yl)carbamoyl]-5-(methoxymethyl)-4-methylfuran-2-sulfonamide], the IC50 is 0.315 µM. In the case of `CCc1nc(NC(=O)NS(=O)(=O)c2csc(C)c2)sc1CC` [Example 62, N-[(4,5-Diethyl-1,3-thiazol-2-yl)carbamoyl]-5-methylthiophene-3-sulfonamide], the IC50 is 0.214 µM. Regarding `COCCc1sc(S(=O)(=O)NC(=O)Nc2ncc(OC)s2)cc1C` [Example 97, 5-(2-Methoxyethyl)-N-[(5-methoxy-1,3-thiazol-2-yl)carbamoyl]-4-methylthiophene-2-sulfonamide], the IC50 is 0.652 µM. Regarding `Cc1noc(C)c1-c1ccc2sc(S(=O)(=O)NC(=O)Nc3ncc(Br)s3)cc2c1` [Example 16, N-[(5-bromo-1,3-thiazol-2-yl)carbamoyl]-5-(3,5-dimethylisoxazol-4-yl)-1-benzothiophene-2-sulfonamide], the IC50 stood at 0.83 µM.
